Columns and labels:
[1] = test system: tomato “Momotato”; assay: Tomato pot test, soil treatment: SPAD value, dry weight, leaf-area, ascorbic acid and nitrate ion in the blade part; assay type: in vivo; conditions: for Concentration of ascorbic acid in the blade part / Concentration of nitrate ion in the blade part / Dry weight of plant / Leaf-area: 3rd day after 7th treatment, relative to control area = 100; for SPAD value: soil treated 7 times weekly, about 50 ml per pot, in 3000-fold Otsuka OKF2, 3rd day after 7th treatment, control area 34.3
Experimental: (§1) The SPAD values in the test and control areas grown under the same conditions are measured by Minolta Chlorophyll Meter SPAD 502 (supplied by Minolta Co., Ltd.). This is an apparatus to measure the amount of chlorophyll of plants (leaves) without destruction. Raw leaves are inserted into this apparatus and irradiated with light (stroboscopic emission by a xenon lamp). The transmission light is passed through a filter having 670 nm of the maximum wavelength to be absorbed by chlorophyll and another filter having 750 nm of the non-specific absorption band of a polymer such as protein, the difference in light absorption amounts at both wavelengths is measured by an integrated circuit and converted digitally, and then the value is expressed. The value is indicated in terms of numerical values between zero to 80 (SPAD value). The SPAD value has a high correlation with the chlorophyll content per unit area of a leaf. The following regression formula is satisfied between the value (X) measured by SPAD 502 and the chlorophyll content (Y) (mg/100 cm^2) (Shokubutsu Eiyo Jikken Ho (translated as Method for testing nutrition of plants), 2nd press., pp. 366-367 issued on Apr. 20th, 1991 by Hakuyu Sha K. K.).
(§2) The improved degree of the SPAD value in the present invention is calculated as follows: Improved degree of the SPAD value=(SPAD value in test area)−(SPAD value in control area).
(§3) The measuring time of the SPAD is not limited but only necessitates that the area of a leaf of the plant reaches to an area (about 5 mm×5 mm or more) measurable by a SPAD meter after a treatment with the substance acting as the plant-activating agent. The measurement of the SPAD value is carried out at least 20 times on the same leaf position of a plant treated with the substance acting as the plant-activating agent and of another plant not treated with the substance acting as a plant-activating agent, and the average value thereof is used.
(§4) The increased amount in weight of a plant (b) is calculated from fresh weights or dry weights in the test area and control area in which plants have been grown under the same conditions, like in the above-mentioned [i]. […] The weight of a plant is measured as follows. Each and all plants treated with the substance acting as the plant-activating agent (test area) and not treated with the substance acting as the plant-activating agent (control area) are taken out of a cultivation apparatus (e.g. a pot), soil and contaminations adhering to roots are washed away by running water sufficiently, and respective weights are measured (fresh weight). Each of the plants is dried at 70° C. for 5 days and the weight thereof after the drying is measured (dry weight). Increased amounts in weight of plants are calculated respectively by the following manner. Herein, though any of the fresh weight and dry weight may be calculated, the dry weight is preferably calculated for directly reflecting the net weight of an anabolite (assimilate). Increased amount (%) in weight (fresh weight) of a plant=[(fresh weight in test area−fresh weight in control area)/(fresh weight in control area)]×100 Increased amount (%) in weight (dry weight) of a plant=[(dry weight in test area−dry weight in control area)/(dry weight in control area)]×100
(§5) The improved degree of leaf-area of a plant (c) is calculated from leaf-area of whole plants in the test area and control area in which plants have been grown in the same conditions, like in the above-mentioned [i]. The improved degree is preferably not less than 5%, more preferably not less than 7% and most preferably not less than 9%. In the present invention, the improved degree of leaf-area is measured using an automatic planimeter AAC-400 model (supplied by Hayashi Denko K. K.). This automatic planimeter is a device to detect, by a photo-electric element, the extent of blockage of scanning beam by a sample. According to this device, the minimum unit is 1 mm^2, the maximum display number can be shown up to 99999.99 cm^2. […]

[2] = test system: spinach “Esper”; assay: Spinach pot test, soil treatment: SPAD value, dry weight, leaf-area, ascorbic acid and nitrate ion in the blade part; assay type: in vivo; conditions: 3rd day after 5th treatment; for Concentration of ascorbic acid in the blade part / Concentration of nitrate ion in the blade part / Dry weight of plant / Leaf-area: relative to control area = 100; for SPAD value: soil treated 5 times weekly, about 150 ml per pot, in water, control area 43.1
Experimental: as §1, §2, §3, §4, §5

Molecule | Concentration of ascorbic acid in the blade part [1] | Concentration of nitrate ion in the blade part [1] | Dry weight of plant [1] | Leaf-area [1] | SPAD value [1] | Concentration of ascorbic acid in the blade part [2] | Concentration of nitrate ion in the blade part [2] | Dry weight of plant [2] | Leaf-area [2] | SPAD value [2]
CCCCCCCCCCCCCCCCCCOCCCCCCCCCCCCCCCCCC [Inventive product 3-9, Distearyl ether] | 134% | 79% | 120% | 112% | 38.1 point | – | – | – | – | –
CC(C)C[C@H](N)C(=O)O [Inventive product 4-6, L-leucine] | – | – | – | – | – | 113% | 85% | 118% | 110% | 49.0 point
CCCCCCCCCCCCCCCCCCOCCCCCCCCCCCCCCCCCC [Inventive product 4-9, Distearyl ether] | – | – | – | – | – | 120% | 73% | 116% | 111% | 49.5 point
Hexaglycerol monostearate [Inventive product 3-16] | 119% | 84% | 115% | 108% | 36.8 point | – | – | – | – | –
POE(1) stearyl ether [Inventive product 3-11] | 116% | 89% | 114% | 108% | 37 point | – | – | – | – | –
POE(1) stearyl ether [Inventive product 4-11] | – | – | – | – | – | 114% | 86% | 112% | 110% | 46.8 point
POE(6) sorbitan monolaurate [Comparative product 3-3] | 101% | 99% | 100% | 102% | 35.0 point | – | – | – | – | –
POE(8) oleyl ether [Comparative product 3-2] | 102% | 98% | 101% | 103% | 35.0 point | – | – | – | – | –
POE(20) sorbitan monooleate [Comparative product 3-1] | 100% | 99% | 103% | 102% | 35.1 point | – | – | – | – | –
POE(20) sorbitan monooleate [Comparative product 4-1, reference compound] | – | – | – | – | – | 98% | 100% | 101% | 96% | 43.5 point
POE(20) sorbitan tristearate [Comparative product 3-5] | 102% | 98% | 101% | 101% | 35.1 point | – | – | – | – | –
Sodium POE(3) lauryl ether sulfate [Comparative product 3-4] | 101% | 100% | 100% | 100% | 34.9 point | – | – | – | – | –
Sodium POE(3) lauryl ether sulfate [Comparative product 4-2, reference compound] | – | – | – | – | – | 95% | 101% | 98% | 95% | 42.5 point
Vitamin B12 [Inventive product 4-2] | – | – | – | – | – | 111% | 85% | 115% | 108% | 45.9 point
